Consider one compound from patent US6759521B2, “Polarization switching to control crystal form” (priority 2000, dated 2004).

For the data set the following is noted: glycine in water, room temperature (21 C). How it is done:
Supersaturated solutions of glycine in water, with concentrations ranging from 3.7 M to 3.9 M, were prepared by combining appropriate amounts of solid glycine with 2 g of water in 1.3-cm diameter Pyrex test tubes with screw-on caps. Great care was taken to exclude dust from samples. Supersaturation was achieved by heating the samples in an ultrasonic bath at 50 C, and holding them at that temperature until the glycine was completely dissolved.

For `NCC(=O)O` [glycine], the “csat, concentration of a saturated solution” value stood at 2.69 M.
